Results taken from US20100292214A1, “Compounds with Antiparasitic Activity, Applications thereof to the Treatment of Infectious Diseases Caused by Apicomplexans” (commissariat a l'Energie Atomique, priority 2007, published 2010).
Where a name gives a salt, the structure may show the parent alone.

Experiments:
[1] = tested on: Toxoplasma gondii RH-β1 strain; test: microbe, parasite or virus in culture; type: cell-based; details: Toxoplasma gondii, read-out: IC50 assessed on Toxoplama Gondii
[2] = tested on: asynchronous 3D7 chloroquine-sensitive P. falciparum infected red blood cells; test: Labeled hypoxanthine incorporation assay (in vitro anti-malarial activity); type: cell-based; details: Plasmodium falciparum, 3D7, Erythrocyte, 3D7 chloroquine-sensitive strain, infected RBC, 48 h contact, [3H]-hypoxanthine incorporation; two independent experiments in duplicates; read-out: IC50 assessed on Plasmodium Falciparum

| SMILES | IC50 [1] | IC50 [2] |
| --- | --- | --- |
| C[C@@H](COC(=O)N1CCC(N(c2ccccc2)S(=O)(=O)c2ccccc2)CC1)N(Cc1ccccc1)Cc1ccccc1 [Compound 90, (S)-2-(dibenzylamino)propyl 4-(N-phenylphenylsulfonamido)piperidine-1-carboxylate] | 1.75 µM | 0.525 µM |
| C[C@@H](CNC(=S)N1CCC(n2c(=O)[nH]c3ccccc32)CC1)N(Cc1ccccc1)Cc1ccccc1 [Compound 91, N-((S)-2-(dibenzylamino)propyl)-4-(1,2-dihydro-2-oxobenzo[d]imidazol-3-yl)piperidine-1-carbothioamide] | 7.5 µM | 2.71 µM |
| C[C@@H](CNC(=O)N1CCC(n2c(=O)[nH]c3ccccc32)CC1)N(Cc1ccccc1)Cc1ccccc1 [Compound 92, N—((S)-2-(dibenzylamino)propyl)-4-(1,2-dihydro-2-oxobenzo[d]imidazol-3-yl)piperidine-1-carboxamide] | 15 µM | 3.47 µM |
| C[C@@H](COC(=O)N1CCC(Nc2nc3ccccc3[nH]2)CC1)N(Cc1ccccc1)Cc1ccccc1 [Compound 93, (S)-2-(Dibenzylamino)propyl 4-(1H-benzo[d]imidazol-2-ylamino)piperidine-1-carboxylate] | 0.98 µM | 0.18 µM |
| C[C@@H](COC(=O)N1CCC(Nc2nc3ccccc3n2C(=O)OC[C@H](C)N(Cc2ccccc2)Cc2ccccc2)CC1)N(Cc1ccccc1)Cc1ccccc1 [Compound 94, (S)-2-(dibenzylamino)propyl 2-(1-(((S)-2-(dibenzylamino)propoxy)carbonyl)piperidin-4-ylamino)-1H-benzo[d]imidazole-1-carboxylate] | 9 µM | 2.62 µM |
| C[C@@H](CNC(=N)N1CCC(n2c(=O)[nH]c3ccccc32)CC1)N(Cc1ccccc1)Cc1ccccc1 [Compound 95, N—((S)-2-(dibenzylamino)propyl)-4-(1,2-dihydro-2-oxobenzo[d]imidazol-3-yl)piperidine-1-carboxamidine] | 11 µM | 0.511 µM |
| O=C(CCCN(Cc1ccccc1)Cc1ccccc1)N1CCC(n2c(=O)[nH]c3ccccc32)CC1 [Compound 96, 1-[1-(4-Dibenzylamino-butyryl)-piperidin-4-yl]-1,3-dihydrobenzoimidazol-2-one] | 6.3 µM | 11.3 µM |
| C[C@@H](COC(=O)N1CCC(n2c(=S)[nH]c3ccccc32)CC1)N(Cc1ccccc1)Cc1ccccc1 [Compound 97, (S)-2-(dibenzylamino)propyl 4-(1,2-dihydro-2-thioxobenzo[d]imidazol-3-yl)piperidine-1-carboxylate] | 3.5 µM | 1.06 µM |
| O=C(OCCN(Cc1ccccc1)Cc1ccc([N+](=O)[O-])cc1)N1CCC(n2c(=O)[nH]c3ccccc32)CC1 [Compound 98, 2-(N-(4-nitrobenzyl)-N-benzylamino)ethyl 4-(1,2-dihydro-2-oxobenzo[d]imidazol-3-yl)piperidine-1-carboxylate] | 3.33 µM | 3.04 µM |
| O=C(OCCN(Cc1ccccc1)Cc1ccccc1OCc1ccccc1)N1CCC(n2c(=O)[nH]c3ccccc32)CC1 [Compound 99, 2-(benzyl(2-(benzyloxy)benzyl)amino)ethyl 4-(2-oxo-2,3-dihydro-1H-benzo[d]imidazol-1-yl)piperidine-1-carboxylate] | 3.5 µM | 0.842 µM |
| CC(C)C[C@@H](COC(=O)N1CCC(n2c(=O)[nH]c3ccccc32)CC1)N(Cc1ccccc1)C(=O)OC(C)(C)C [Compound 105, (S)-2-(benzyl(tert-butoxycarbonyl)amino)-4-methylpentyl 4-(2-oxo-2,3-dihydro-1H-benzo[d]imidazol-1-yl)piperidine-1-carboxylate] | 2.2 µM | 1.42 µM |
| CC(C)C[C@@H](COC(=O)N1CCC(n2c(=O)[nH]c3ccccc32)CC1)N(Cc1ccccc1)Cc1ccccc1 [Compound 108, (S)-2-(dibenzylamino)-4-methylpentyl 4-(1,2-dihydro-2-oxobenzo[d]imidazol-3-yl)piperidine-1-carboxylate] | 3.75 µM | 2.61 µM |
| CC(CCOC(=O)N1CCC(n2c(=O)[nH]c3ccccc32)CC1)N(Cc1ccccc1)Cc1ccccc1 (stereo not shown) [Compound 110, 3-(dibenzylamino)butyl 4-(1,2-dihydro-2-oxobenzo[d]imidazol-3-yl)piperidine-1-carboxylate] | 3.6 µM | 1.48 µM |
| O=C(OC[C@H](c1ccccc1)N(Cc1ccccc1)Cc1ccccc1)N1CCC(n2c(=O)[nH]c3ccccc32)CC1 [Compound 112, (S)-2-(dibenzylamino)-2-phenylethyl 4-(1,2-dihydro-2-oxobenzo[d]imidazol-3-yl)piperidine-1-carboxylate] | 3.75 µM | 0.5 µM |
| O=C(OCCCN(Cc1ccccc1)Cc1ccc([N+](=O)[O-])cc1)N1CCC(n2c(=O)[nH]c3ccccc32)CC1 [Compound 114, 3-(benzyl(4-nitrobenzyl)amino)propyl 4-(2-oxo-2,3-dihydro-1H-benzo[d]imidazol-1-yl)piperidine-1-carboxylate hydrochloride] | 3.3 µM | 3.17 µM |
| O=C(OCCN(Cc1ccccc1)Cc1ccc(Br)cc1)N1CCC(n2c(=O)[nH]c3ccccc32)CC1 [Compound 115, 2-(benzyl(4-bromobenzyl)amino)ethyl 4-(2-oxo-2,3-dihydro-1H-benzo[d]imidazol-1-yl)piperidine-1-carboxylate hydrochloride] | 3.2 µM | 4.41 µM |
| O=C(OC[C@@H](Cc1ccccc1)N(Cc1ccccc1)Cc1ccccc1)N1CCC(n2c(=O)[nH]c3ccccc32)CC1 [Compound 118, (R)-2-(dibenzylamino)-3-phenylpropyl 4-(1,2-dihydro-2-oxobenzo[d]imidazol-3-yl)piperidine-1-carboxylate] | 2.9 µM | 1.49 µM |
| O=C(OCCN(Cc1ccccc1)Cc1ccc(F)cc1)N1CCC(n2c(=O)[nH]c3ccccc32)CC1 [Compound 119, 2-(benzyl(4-fluorobenzyl)amino)ethyl 4-(2-oxo-2,3-dihydro-1H-benzo[d]imidazol-1-yl)piperidine-1-carboxylate hydrochloride] | 1.4 µM | 3.57 µM |
| O=C(OCCN(CCCc1ccccc1)Cc1ccccc1)N1CCC(n2c(=O)[nH]c3ccccc32)CC1 [Compound 120, 2-(benzyl(3-phenylpropyl)amino)ethyl 4-(2-oxo-2,3-dihydro-1H-benzo[d]imidazol-1-yl)piperidine-1-carboxylate hydrochloride] | 1.7 µM | 3.61 µM |
| COc1ccc(CN(CCOC(=O)N2CCC(n3c(=O)[nH]c4ccccc43)CC2)Cc2ccccc2)cc1 [Compound 121, 2-(benzyl(4-methoxybenzyl)amino)ethyl 4-(2-oxo-2,3-dihydro-1H-benzo[d]imidazol-1-yl)piperidine-1-carboxylate hydrochloride] | 5 µM | 3.49 µM |
| COc1cccc(CN(CCOC(=O)N2CCC(n3c(=O)[nH]c4ccccc43)CC2)Cc2ccccc2)c1 [Compound 122, 2-(benzyl(3-methoxybenzyl)amino)ethyl 4-(2-oxo-2,3-dihydro-1H-benzo[d]imidazol-1-yl)piperidine-1-carboxylate hydrochloride] | 1.75 µM | 3.72 µM |
| O=C(OCCN(Cc1ccccc1)Cc1cccc(Oc2ccccc2)c1)N1CCC(n2c(=O)[nH]c3ccccc32)CC1 [Compound 123, 2-(benzyl(3-phenoxybenzyl)amino)ethyl 4-(2-oxo-2,3-dihydro-1H-benzo[d]imidazol-1-yl)piperidine-1-carboxylate hydrochloride] | 3.7 µM | 1.42 µM |
| C[C@@H](COC(=O)N1CCC(n2c(=O)[nH]c3ccccc32)CC1)N(CCCc1ccccc1)Cc1ccccc1 [Compound 125, (S)-2-(benzyl(3-phenylpropyl)amino)propyl 4-(2-oxo-2,3-dihydro-1H-benzo[d]imidazol-1-yl)piperidine-1-carboxylate hydrochloride] | 4 µM | 4.2 µM |
| COc1cccc(CN(Cc2ccccc2)[C@@H](C)COC(=O)N2CCC(n3c(=O)[nH]c4ccccc43)CC2)c1 [Compound 126, (S)-2-(benzyl(3-methoxybenzyl)amino)propyl 4-(2-oxo-2,3-dihydro-1H-benzo[d]imidazol-1-yl)piperidine-1-carboxylate hydrochloride] | 3.75 µM | 3.98 µM |
| C[C@@H](COC(=O)N1CCC(n2c(=O)[nH]c3ccccc32)CC1)N(Cc1ccccc1)Cc1cccc(Cl)c1 [Compound 128, (S)-2-(benzyl(3-chlorobenzyl)amino)propyl 4-(2-oxo-2,3-dihydro-1H-benzo[d]imidazol-1-yl)piperidine-1-carboxylate hydrochloride] | 5 µM | 2.06 µM |
| O=C(OCCN(Cc1ccccc1)Cc1ccnc2ccccc12)N1CCC(n2c(=O)[nH]c3ccccc32)CC1 [Compound 131, 2-(benzyl(quinolin-4-ylmethyl)amino)ethyl 4-(2-oxo-2,3-dihydro-1H-benzo[d]imidazol-1-yl)piperidine-1-carboxylate hydrochloride] | 1.05 µM | 2.95 µM |
| Cn1c(CN(CCOC(=O)N2CCC(n3c(=O)[nH]c4ccccc43)CC2)Cc2ccccc2)cc2ccccc21 [Compound 132, 2-(benzyl((1-methyl-1H-indol-2-yl)methyl)amino)ethyl 4-(2-oxo-2,3-dihydro-1H-benzo[d]imidazol-1-yl)piperidine-1-carboxylate hydrochloride] | 1.2 µM | 4.2 µM |
| C[C@@H](COC(=O)N1CCC(n2c(=O)[nH]c3ccccc32)CC1)N(Cc1ccccc1)Cc1ccnc2ccccc12 [Compound 133, (S)-2-(benzyl(quinolin-4-ylmethyl)amino)propyl 4-(2-oxo-2,3-dihydro-1H-benzo[d]imidazol-1-yl)piperidine-1-carboxylate hydrochloride] | 1 µM | 2.55 µM |
| O=C(OCCCN(Cc1ccccc1)Cc1ccccn1)N1CCC(n2c(=O)[nH]c3ccccc32)CC1 [Compound 135, 3-(benzyl(pyridin-2-ylmethyl)amino)propyl 4-(2-oxo-2,3-dihydro-1H-benzo[d]imidazol-1-yl)piperidine-1-carboxylate hydrochloride] | 2.3 µM | 3.6 µM |
